These results are taken from ChEMBL document CHEMBL5715260, “Selectivity Literature for EUbOPEN Chemogenomic Library” (2024).

Parameters in all cases: recommended concentration 1 uM
The target in experiment [1] is T1, Hepatocyte nuclear factor 4-alpha (Homo sapiens) (UniProt P41235).
T1 sequence (whole entry): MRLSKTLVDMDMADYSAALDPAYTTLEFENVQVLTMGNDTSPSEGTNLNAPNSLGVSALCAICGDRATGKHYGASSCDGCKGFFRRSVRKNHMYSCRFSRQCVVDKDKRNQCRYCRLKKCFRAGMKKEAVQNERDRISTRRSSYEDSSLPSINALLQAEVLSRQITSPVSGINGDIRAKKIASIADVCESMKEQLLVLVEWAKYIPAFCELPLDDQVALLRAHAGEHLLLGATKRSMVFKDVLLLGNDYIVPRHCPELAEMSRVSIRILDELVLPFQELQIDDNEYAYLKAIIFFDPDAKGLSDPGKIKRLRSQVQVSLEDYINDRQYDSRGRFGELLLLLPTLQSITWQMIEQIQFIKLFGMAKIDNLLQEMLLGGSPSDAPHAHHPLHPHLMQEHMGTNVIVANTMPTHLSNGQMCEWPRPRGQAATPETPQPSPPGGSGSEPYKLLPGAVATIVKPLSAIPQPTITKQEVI
The experiment can be described thus: Selectivity interaction (Reporter gene assay) EUB0000571a HNF4A.

Experiment [2] addresses Nuclear receptor subfamily 4immunitygroup A member 1 (Homo sapiens) (UniProt P22736). The experiment can be described thus: Selectivity interaction (Reporter gene assay) EUB0000571a NR4A1.
In experiment [3] the target is T2, Retinoic acid receptor RXR-alpha (Homo sapiens) (UniProt P19793).
T2 sequence (whole entry): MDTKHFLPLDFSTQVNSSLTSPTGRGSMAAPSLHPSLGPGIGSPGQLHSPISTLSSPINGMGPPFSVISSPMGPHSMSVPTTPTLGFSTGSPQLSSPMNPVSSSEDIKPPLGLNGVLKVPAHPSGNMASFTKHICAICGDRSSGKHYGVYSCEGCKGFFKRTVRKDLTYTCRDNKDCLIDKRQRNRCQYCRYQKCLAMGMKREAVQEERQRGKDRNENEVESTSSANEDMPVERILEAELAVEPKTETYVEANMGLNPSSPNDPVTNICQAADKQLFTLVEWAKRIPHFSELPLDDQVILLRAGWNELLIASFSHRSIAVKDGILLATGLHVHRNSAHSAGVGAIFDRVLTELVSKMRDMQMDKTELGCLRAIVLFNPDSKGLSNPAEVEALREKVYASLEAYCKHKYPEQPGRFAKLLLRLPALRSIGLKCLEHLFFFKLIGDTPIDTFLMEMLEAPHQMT
Briefly: Selectivity interaction (Reporter gene assay) EUB0000571a RXRA. To be noted: reference bexarotene 1 uM, Selectivity number of off-targets 0.0, Selectivity number of targets 1.0, Source Knowledge inhouse.

The target in experiment [4] is T3, Alpha trans-inducing protein (Human alphaherpesvirus 1) (UniProt A0A5J6DW59). The experiment can be described thus: Selectivity interaction (Reporter gene assay) EUB0000571a UL48. A general note: In a reporter assay the amount or activity of a reporter protein is the signal.
T3 sequence (A0A5J6DW59 as listed by the source): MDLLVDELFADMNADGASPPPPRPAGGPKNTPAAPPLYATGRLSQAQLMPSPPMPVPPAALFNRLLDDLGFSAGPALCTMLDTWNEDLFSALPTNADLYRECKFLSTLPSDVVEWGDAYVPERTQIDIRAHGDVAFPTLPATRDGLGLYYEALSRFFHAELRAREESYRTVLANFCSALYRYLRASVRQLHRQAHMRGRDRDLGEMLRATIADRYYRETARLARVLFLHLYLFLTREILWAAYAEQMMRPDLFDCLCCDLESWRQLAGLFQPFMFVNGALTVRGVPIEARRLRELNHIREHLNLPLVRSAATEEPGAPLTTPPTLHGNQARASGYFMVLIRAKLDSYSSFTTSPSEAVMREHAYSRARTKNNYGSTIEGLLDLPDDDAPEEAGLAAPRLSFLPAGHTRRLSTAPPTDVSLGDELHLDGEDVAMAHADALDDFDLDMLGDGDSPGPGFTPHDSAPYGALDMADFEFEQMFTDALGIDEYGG
The target in experiment [5] is Steroidogenic factor 1 (Homo sapiens) (UniProt Q13285). The experiment can be described thus: Selectivity interaction (Reporter gene assay) EUB0000571a NR5A1.
Steroidogenic factor 1 (Homo sapiens), sequence (Q13285 whole entry): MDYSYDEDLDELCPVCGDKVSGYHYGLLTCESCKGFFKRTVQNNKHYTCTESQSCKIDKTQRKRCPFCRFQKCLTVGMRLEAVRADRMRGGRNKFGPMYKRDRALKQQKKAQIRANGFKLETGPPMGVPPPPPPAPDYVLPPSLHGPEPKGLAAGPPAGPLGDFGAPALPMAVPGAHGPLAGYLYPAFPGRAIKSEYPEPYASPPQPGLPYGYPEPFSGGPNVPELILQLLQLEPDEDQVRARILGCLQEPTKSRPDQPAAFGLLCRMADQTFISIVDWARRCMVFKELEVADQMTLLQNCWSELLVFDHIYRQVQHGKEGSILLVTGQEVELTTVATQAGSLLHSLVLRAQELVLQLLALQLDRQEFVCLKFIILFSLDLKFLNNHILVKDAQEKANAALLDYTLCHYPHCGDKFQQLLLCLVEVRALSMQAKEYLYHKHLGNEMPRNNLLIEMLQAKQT
Experiment [6] has as its target T4, Nuclear receptor subfamily 2 group C member 1 (Homo sapiens) (UniProt P13056).
T4 sequence (whole entry): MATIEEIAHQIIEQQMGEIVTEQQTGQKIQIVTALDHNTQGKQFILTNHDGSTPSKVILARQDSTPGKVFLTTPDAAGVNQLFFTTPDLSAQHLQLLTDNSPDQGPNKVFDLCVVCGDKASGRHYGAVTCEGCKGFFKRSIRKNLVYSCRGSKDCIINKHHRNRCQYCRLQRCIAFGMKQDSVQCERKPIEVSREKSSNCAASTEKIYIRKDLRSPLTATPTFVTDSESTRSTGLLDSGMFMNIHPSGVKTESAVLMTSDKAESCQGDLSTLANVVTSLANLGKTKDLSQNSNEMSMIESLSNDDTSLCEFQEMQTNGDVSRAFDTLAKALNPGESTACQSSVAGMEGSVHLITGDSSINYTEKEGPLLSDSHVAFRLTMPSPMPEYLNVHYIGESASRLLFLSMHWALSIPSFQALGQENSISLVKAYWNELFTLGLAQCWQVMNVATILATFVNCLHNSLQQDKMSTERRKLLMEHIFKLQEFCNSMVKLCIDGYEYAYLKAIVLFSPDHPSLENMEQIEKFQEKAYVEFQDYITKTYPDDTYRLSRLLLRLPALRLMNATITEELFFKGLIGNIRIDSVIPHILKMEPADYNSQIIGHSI
Briefly: Selectivity interaction (Reporter gene assay) EUB0000571a NR2C1.

The target in experiment [7] is Nuclear receptor subfamily 2 group E member 1 (Homo sapiens) (UniProt Q9Y466). The experiment can be described thus: Selectivity interaction (Reporter gene assay) EUB0000571a NR2E1.
Nuclear receptor subfamily 2 group E member 1 (Homo sapiens), sequence (Q9Y466 whole entry): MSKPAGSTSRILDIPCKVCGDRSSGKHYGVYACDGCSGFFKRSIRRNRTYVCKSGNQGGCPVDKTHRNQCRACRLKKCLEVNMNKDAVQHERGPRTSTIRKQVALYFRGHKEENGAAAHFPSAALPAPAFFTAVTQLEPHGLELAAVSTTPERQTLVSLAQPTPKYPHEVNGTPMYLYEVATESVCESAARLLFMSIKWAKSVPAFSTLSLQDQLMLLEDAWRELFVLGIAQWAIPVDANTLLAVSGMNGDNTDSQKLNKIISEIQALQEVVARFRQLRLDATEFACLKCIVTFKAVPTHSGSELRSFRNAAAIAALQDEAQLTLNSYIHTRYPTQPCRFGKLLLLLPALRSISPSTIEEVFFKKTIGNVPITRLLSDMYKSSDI
Experiment [8] concerns the target Steroidogenic factor 1 (Homo sapiens) (UniProt Q13285). The experiment can be described thus: Selectivity interaction (Reporter gene assay) EUB0000573a NR5A1.
The target of experiment [9] is Nuclear receptor subfamily 2 group E member 1 (Homo sapiens) (UniProt Q9Y466). The experiment can be described thus: Selectivity interaction (Reporter gene assay) EUB0000573a NR2E1.
Experiment [10] deals with Nuclear receptor subfamily 4immunitygroup A member 1 (Homo sapiens) (UniProt P22736). The experiment can be described thus: Selectivity interaction (Reporter gene assay) EUB0000573a NR4A1.
Nuclear receptor subfamily 4immunitygroup A member 1 (Homo sapiens), sequence (P22736 whole entry): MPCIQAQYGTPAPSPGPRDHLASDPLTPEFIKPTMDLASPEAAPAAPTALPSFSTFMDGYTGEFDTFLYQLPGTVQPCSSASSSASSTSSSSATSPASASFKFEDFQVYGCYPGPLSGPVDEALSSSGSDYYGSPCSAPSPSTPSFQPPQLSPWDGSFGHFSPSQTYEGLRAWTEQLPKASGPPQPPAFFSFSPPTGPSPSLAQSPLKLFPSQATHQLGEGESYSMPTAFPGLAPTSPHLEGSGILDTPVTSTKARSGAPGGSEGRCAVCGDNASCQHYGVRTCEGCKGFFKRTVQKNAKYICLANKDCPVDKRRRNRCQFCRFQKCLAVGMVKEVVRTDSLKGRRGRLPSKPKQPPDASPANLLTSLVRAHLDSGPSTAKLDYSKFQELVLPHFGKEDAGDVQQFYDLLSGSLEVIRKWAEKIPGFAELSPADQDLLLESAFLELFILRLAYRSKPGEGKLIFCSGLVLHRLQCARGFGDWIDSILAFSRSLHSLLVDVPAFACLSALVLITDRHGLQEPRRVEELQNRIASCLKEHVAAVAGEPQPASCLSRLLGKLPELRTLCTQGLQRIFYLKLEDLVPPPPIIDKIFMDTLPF
In experiment [11] the target is T1, Hepatocyte nuclear factor 4-alpha (Homo sapiens). Briefly: Selectivity interaction (Reporter gene assay) EUB0000573a HNF4A.
Experiment [12] concerns the target T4, Nuclear receptor subfamily 2 group C member 1 (Homo sapiens). The experiment can be described thus: Selectivity interaction (Reporter gene assay) EUB0000573a NR2C1.
Experiment [13] has as its target T3, Alpha trans-inducing protein (Human alphaherpesvirus 1). Briefly: Selectivity interaction (Reporter gene assay) EUB0000573a UL48.
In experiment [14] the target is T2, Retinoic acid receptor RXR-alpha (Homo sapiens). The experiment can be described thus: Selectivity interaction (Reporter gene assay) EUB0000573a RXRA. To be noted: reference bexarotene 1 uM, Selectivity number of off-targets 0.0, Selectivity number of targets 1.0, Source Knowledge inhouse.
Experiment [15] has the same target. The experiment can be described thus: Selectivity interaction (Reporter gene assay) EUB0000569a RXRA.
Experiment [16] addresses T5, Peroxisome proliferator-activated receptor gamma (Homo sapiens) (UniProt P37231).
T5 sequence (whole entry): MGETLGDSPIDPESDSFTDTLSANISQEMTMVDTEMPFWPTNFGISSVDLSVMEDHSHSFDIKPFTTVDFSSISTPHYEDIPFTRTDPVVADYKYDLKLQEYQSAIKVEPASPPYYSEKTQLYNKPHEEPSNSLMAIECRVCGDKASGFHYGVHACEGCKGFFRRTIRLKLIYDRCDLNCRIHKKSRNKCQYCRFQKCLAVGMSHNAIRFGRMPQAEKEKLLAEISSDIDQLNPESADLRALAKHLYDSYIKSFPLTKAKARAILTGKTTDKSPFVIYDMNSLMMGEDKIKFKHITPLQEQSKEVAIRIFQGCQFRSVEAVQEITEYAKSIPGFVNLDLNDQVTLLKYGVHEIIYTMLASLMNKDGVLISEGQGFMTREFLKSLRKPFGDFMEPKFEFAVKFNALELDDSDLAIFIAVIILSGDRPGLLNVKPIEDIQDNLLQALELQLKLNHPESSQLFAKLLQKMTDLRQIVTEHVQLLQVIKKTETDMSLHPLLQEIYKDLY
The experiment can be described thus: Selectivity interaction (Reporter gene assay) EUB0000569a PPARG. To be noted: screened at recom. conc., Selectivity number of off-targets 2.0, Selectivity number of targets 19.0, Source Knowledge inhouse.

In experiment [17] the target is Peroxisome proliferator-activated receptor alpha (Homo sapiens) (UniProt Q07869). The experiment can be described thus: Selectivity interaction (Reporter gene assay) EUB0000569a PPARA. To be noted: screened at recom. conc., Selectivity number of off-targets 2.0, Selectivity number of targets 19.0, Source Knowledge inhouse.
Peroxisome proliferator-activated receptor alpha (Homo sapiens), sequence (Q07869 whole entry): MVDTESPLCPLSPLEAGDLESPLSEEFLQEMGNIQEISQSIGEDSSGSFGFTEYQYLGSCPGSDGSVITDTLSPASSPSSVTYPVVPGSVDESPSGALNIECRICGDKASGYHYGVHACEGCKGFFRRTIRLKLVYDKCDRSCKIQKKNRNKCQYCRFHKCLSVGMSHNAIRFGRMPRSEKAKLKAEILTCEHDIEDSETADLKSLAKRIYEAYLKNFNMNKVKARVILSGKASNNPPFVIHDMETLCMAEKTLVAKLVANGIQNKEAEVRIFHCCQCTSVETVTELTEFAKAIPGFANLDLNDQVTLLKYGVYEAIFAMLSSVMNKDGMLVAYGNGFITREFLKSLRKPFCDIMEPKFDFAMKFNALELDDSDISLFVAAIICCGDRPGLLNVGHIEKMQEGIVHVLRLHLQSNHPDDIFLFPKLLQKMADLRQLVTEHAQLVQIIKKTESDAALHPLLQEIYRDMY
Experiment [18] addresses T1, Hepatocyte nuclear factor 4-alpha (Homo sapiens). Briefly: Selectivity interaction (Reporter gene assay) EUB0000569a HNF4A.
Experiment [19] addresses T3, Alpha trans-inducing protein (Human alphaherpesvirus 1). The experiment can be described thus: Selectivity interaction (Reporter gene assay) EUB0000569a UL48.
Experiment [20] has as its target Nuclear receptor subfamily 4immunitygroup A member 1 (Homo sapiens) (UniProt P22736). Briefly: Selectivity interaction (Reporter gene assay) EUB0000569a NR4A1.
Experiment [21] has as its target T4, Nuclear receptor subfamily 2 group C member 1 (Homo sapiens). The experiment can be described thus: Selectivity interaction (Reporter gene assay) EUB0000569a NR2C1.
Experiment [22] addresses Steroidogenic factor 1 (Homo sapiens) (UniProt Q13285). Briefly: Selectivity interaction (Reporter gene assay) EUB0000569a NR5A1.
For experiment [23], the target named is Nuclear receptor subfamily 2 group E member 1 (Homo sapiens) (UniProt Q9Y466). Briefly: Selectivity interaction (Reporter gene assay) EUB0000569a NR2E1.
For experiment [24] the target is unchanged. The experiment can be described thus: Selectivity interaction (Reporter gene assay) EUB0000570a NR2E1.
Experiment [25] deals with T1, Hepatocyte nuclear factor 4-alpha (Homo sapiens). The experiment can be described thus: Selectivity interaction (Reporter gene assay) EUB0000570a HNF4A.
Experiment [26] has as its target T4, Nuclear receptor subfamily 2 group C member 1 (Homo sapiens). Briefly: Selectivity interaction (Reporter gene assay) EUB0000570a NR2C1.
The target of experiment [27] is T3, Alpha trans-inducing protein (Human alphaherpesvirus 1). Briefly: Selectivity interaction (Reporter gene assay) EUB0000570a UL48.
Experiment [28] has as its target T2, Retinoic acid receptor RXR-alpha (Homo sapiens). Briefly: Selectivity interaction (Reporter gene assay) EUB0000570a RXRA. Particulars: reference bexarotene 1 uM, Selectivity number of off-targets 0.0, Selectivity number of targets 1.0, Source Knowledge inhouse.
Experiment [29] concerns the target Steroidogenic factor 1 (Homo sapiens) (UniProt Q13285). The experiment can be described thus: Selectivity interaction (Reporter gene assay) EUB0000570a NR5A1.
The target of experiment [30] is Nuclear receptor subfamily 4immunitygroup A member 1 (Homo sapiens) (UniProt P22736). The experiment can be described thus: Selectivity interaction (Reporter gene assay) EUB0000570a NR4A1.

As to `COC(=O)C(Cc1ccc(OCCn2c(=O)sc3cc(C(=O)c4ccccc4)ccc32)cc1)C(=O)OC`, the Fold activation in experiment [1] was 1.06; in [5] it was 1.22; in experiment [6], 1.38. The Remaining activity in [2] stood at 0.966; in [7] it was 0.849. The same molecule showed a Relative activation in experiment [3] of 0.67%. Further, the P-value in experiment [4] was 0.0005.
`CC(C)OC(=O)C1=CN(C(=O)c2ccc(F)c(F)c2)CC(C)(C)c2c1[nH]c1ccccc21`: the Fold activation in [8] came out at 1.12; in experiment [9], 1.46; in experiment [10], 1.03; in [11], 1.02; in experiment [12], 1.3. Further, in experiment [13], the P-value came to 1.36e-05. This molecule returned a Relative activation in experiment [14] of 0.671%.
For the molecule `Cc1cc(SCc2sc(-c3ccc(C(F)(F)F)c(F)c3)nc2C)ccc1OCC(=O)O`, in experiment [15], the Relative activation came out at 0.693%. Besides, the Fold activation in [16] came out at 10.5; in [17], 14.8; in experiment [18], 1.11; in experiment [20], 1.17; in experiment [21] it was 1.31; in experiment [22], 1.02. Besides, the Fold activation in experiment [23] was 1.36. The P-value in [19] was found to be 0.0031.
With `CN(CCOc1ccc(C[C@H](Nc2ccccc2C(=O)c2ccccc2)C(=O)O)cc1)c1ccccn1`, the Remaining activity in [24] was 0.776; in experiment [25] it was 0.831; in experiment [29], 0.849; in experiment [30], 0.85. In experiment [26], this molecule had a Fold activation of 1.03. The same molecule gave a P-value in experiment [27] of 1.12e-05. In [28], this molecule showed a Relative activation of 0.731%.
